Patent publication US4719214A, “Carbocyclic analogues of thymine nucleosides” (priority 1985, dated 1988)
Converted amounts (≈) assume the structure as drawn. “And” between values parts separate entries of the source, which are not always exact repeats. Identical values can stand only once. “Also recorded” adds a separate entry of the source. Like-named read-outs stand apart in the source and are kept apart here. One block for each compound: values may come before it.

What was measured:
[1] = system: Herpes Simplex Virus Type 1, Strain 377; experiment: Antiviral activity vs. herpes simplex virus type 1 replicating in Vero cells (virus-induced cytopathogenic effects); assay type: cell-based; settings: for antiviral activity vs. HSV-1 (in words): HSV-1, Table 1 summary; for Virus rating (VR): 0.5-0.9 marginal to moderate, >=1 definite antiviral activity; for EC50: Human alphaherpesvirus 1, Vero, read-out: MIC50 (minimum inhibitory concentration, 50%)
Protocol: (§1) The MIC50 (minimum inhibitory concentration, 50%) is the concentration of a test compound required for 50% inhibition of virus-induced cytopathogenic effects.
(§2) ^a Antiviral evaluations were performed with HSV1 or HSV2 replicating

[2] = system: Herpes Simplex Virus Type 2, Strain MS; experiment: Antiviral activity vs. herpes simplex virus type 2 replicating in Vero cells (virus-induced cytopathogenic effects); assay type: cell-based; settings: for antiviral activity vs. HSV-2 (in words): HSV-2, Table 1 summary; for Virus rating (VR): 0.5-0.9 marginal to moderate, >=1 definite antiviral activity; for EC50: Human alphaherpesvirus 2, Vero, read-out: MIC50 (minimum inhibitory concentration, 50%)
Protocol: as §1, §2

thymidine phosphorylase = settings: isolated from human blood platelets; cited from earlier work
[3] = rats; cited from earlier work
[4] = HSV-1 strain 377, Vero cells, 50% inhibition of virus-induced cytopathogenic effects
[5] = HSV-2 strain MS, Vero cells, 50% inhibition of virus-induced cytopathogenic effects
[6] = listed as carbocyclic analogue of 5-ethynyl-2'-deoxyuridine

MIC50 (minimum inhibitory concentration, 50%) [1, 4]: 69 µg/mL (≈ 271 µM)
EC50 [1, 4]: 45 µg/mL (≈ 177 µM)
MIC50 (minimum inhibitory concentration, 50%) [2, 5]: 178 µg/mL (≈ 700 µM)
EC50 [2, 5]: 227 µg/mL (≈ 893 µM)
Compound: CCc1cn([C@@H]2C[C@H](CO)[C@@H](O)C2)c(=O)[nH]c1=O (relative stereo) [C-EDU, 5-Ethyl-1-[(1α,3β,4α)-3-Hydroxy-4-(hydroxymethyl)cyclopentyl]-2,4(1H,3H)-pyrimidinedione]
antiviral activity vs. HSV-1 (in words) [1]: comparable to those of 9-β-D-arabinofuranosyladenine (Ara-A); also recorded: as active vs. HSV-1 as is the corresponding true nucleoside, 5-ethyl-2'-deoxyuridine (EDU); also recorded: inhibits the replication
Virus rating (VR) ([1]; HSV-1 strain 377, Vero cells): 2.4 and 2.1
antiviral activity vs. HSV-2 (in words) [2]: comparable to those of 9-β-D-arabinofuranosyladenine (Ara-A); also recorded: definite and significant activity against HSV-2; also recorded: inhibits the replication
Virus rating (VR) ([2]; HSV-2 strain MS, Vero cells): 1.1

EC50 [1, 4]: 253 µg/mL (≈ 1010 µM)
EC50 [2, 5]: 207 µg/mL (≈ 827 µM)
Compound: C#Cc1cn([C@@H]2C[C@H](CO)[C@@H](O)C2)c(=O)[nH]c1=O (relative stereo) [Example 4, 1-[(1α,3β,4α)-3-Hydroxy-4-(hydroxymethyl)cyclopentyl]-5-ethynyl-2,4(1H,3H)-pyrimidinedione]
antiviral activity vs. HSV-1 (in words) [1]: significant antiviral activity
antiviral activity vs. HSV-1 (in words) [1, 6]: significant, selective activity
Virus rating (VR) ([1]; HSV-1 strain 377, Vero cells): 0.9
antiviral activity vs. HSV-2 (in words) [2]: significant antiviral activity
antiviral activity vs. HSV-2 (in words) [2, 6]: significant, selective activity
Virus rating (VR) ([2]; HSV-2 strain MS, Vero cells): 1.1

Compound: C[Si](C)(C)CCc1cn([C@@H]2C[C@H](CO)[C@@H](O)C2)c(=O)[nH]c1=O (relative stereo) [Example 7, 1-[(1α,3β,4α)-3-Hydroxy-4-(hydroxymethyl)cyclopentyl]-5-[2-(trimethylsilyl)ethyl]-2,4(1H,3H)-pyrimidinedione]
antiviral activity vs. HSV-1 (in words) [1]: antiviral activity
antiviral activity vs. HSV-1 (in words) ([1]; listed as carbocyclic analogue of 5-trimethylsilylethyl-2'-deoxyuridine): activity against HSV-1
Virus rating (VR) ([1]; HSV-1 strain 377, Vero cells): 0.5
EC50 [1]: 320 µg/mL (≈ 980 µM)

Compound: Nc1ncnc2c1ncn2[C@@H]1O[C@H](CO)[C@@H](O)[C@@H]1O [Ara-A, 9-β-D-arabinofuranosyladenine, reference compound]
Virus rating (VR) ([1]; HSV-1 strain 377, Vero cells): 2.0-2.1
EC50 [1]: 15 to 19 µg/mL (≈ 56.1 to 71.1 µM)
Virus rating (VR) ([2]; HSV-2 strain MS, Vero cells): 1.3-1.7
EC50 [2]: 22 to 45 µg/mL (≈ 82.3 to 168 µM)

Compound: O=c1[nH]c(=O)n([C@H]2C[C@H](O)[C@@H](CO)O2)cc1/C=C/Br [BVDU, 5-[(E)-2-(bromovinyl)]-2'-deoxyuridine]
substrate for thymidine phosphorylase (thymidine phosphorylase): substrates for thymidine phosphorylase

Compound: CCc1cn([C@H]2C[C@H](O)[C@@H](CO)O2)c(=O)[nH]c1=O [EDU, 5-ethyl-2'-deoxyuridine, reference compound]
Virus rating (VR) ([1]; HSV-1 strain 377, Vero cells): 2.3
EC50 [1]: 19 µg/mL (≈ 74.1 µM)
Virus rating (VR) ([2]; HSV-2 strain MS, Vero cells): 2.2
EC50 [2]: 321 µg/mL (≈ 1250 µM)
substrate for thymidine phosphorylase (thymidine phosphorylase): substrates for thymidine phosphorylase
cleavage products identified as metabolites [3]: 5-ethyluracil and 5-(2-hydroxyethyl)uracil
